Laboratory results as given in patent US20160151305A1, “AGENT OR METHOD FOR TREATEMENT AND/OR PREVENTION OF ACCELERATED ENERGY EXPENDITURE AND/OR DIMINISHED ENERGY EXPENDITURE FUNCTIONALITY” (MATSUTANI CHEMICAL INDUSTRY CO., LTD., priority 2013, published 2016).
Entries after “also recorded” stand apart in the source; their conditions may differ.

What was measured:
[1] = Sensory test by continuous administration of D-psicose in humans (interview); type: in vivo; conditions: for Changes: Body became easier to move (number of subjects) / Changes: Body felt lighter (number of subjects) / Changes: Body felt warmer (number of subjects) / Changes: Felt better (number of subjects) / Changes: Felt less fatigue (number of subjects) / Changes: No change (number of subjects): 5 healthy humans, once a day for 2 weeks, sample A = D-psicose 1.0 g, B = 2.5 g, C = 5.0 g
Protocol: The test was conducted for 5 healthy individuals with no smoking habit (average age of 35.0; 3 males and 2 females). Prior to the experiment, the subjects were fully informed of the experiment contents in line with the guidelines of the Declaration of Helsinki, and the experiment was conducted with the informed consent of all subjects. The subjects were each asked to continuously take sample A (D-psicose, 1.0 g), once a day for 2 weeks. The subjects were then interviewed to see if there was any physical changes. After 1 week, the same subjects were continuously given sample B (D-psicose, 2.5 g) for 2 weeks in the same manner as for sample A, and were interviewed again. The same procedure was repeated after 1 week by continuously giving sample C (D-psicose, 5.0 g) to the same subjects, followed by an interview.

[2] = Metabolism test by single oral administration of D-psicose in rats (indirect calorimetry); type: in vivo, male Sprague-Dawley rats; conditions: glucose+fructose+psicose (+Psi group) vs glucose+fructose (-Psi group), mean value every 12 minutes, FIG. 1
Source text: Effects of single oral administration of D-psicose on energy metabolism were examined using male Sprague-Dawley rats (7 weeks of age; purchased from CLEA Japan). The rats were preliminarily maintained for 1 week with a commercially available solid feed (CE-2; CLEA Japan), and were divided into 3 groups so as to be uniform in body weight upon measuring the body weight (each group contained eight rats).
The rats were individually put in a cage of a respiratory metabolism measurement system for small animals MK-5000 (Muromachi Kikai Co., Ltd.) at 16 o'clock on the day before a calorimetric test. The rats were measured by indirect calorimetry, and acclimated in the dark without food (dark period).
The rats were placed under a light at 10 o'clock next morning (light period). […] The solution concentrations are different to match total energy amounts. […] For the rest of the experiment, the rats were allowed access to only purified water, and the calorific value was continuously measured until 10 o'clock next day at 23° C. under light.
Resting energy metabolism (resting energy expenditure; hereinafter, “REE”, kcal/min) was calculated by using the Weir equation, and the result was divided by body weight (hereinafter, “BW”, in kg). The mean of measured values from 12 min to 60 min before the administration was regarded as a value at hour 0, and amounts of change were calculated over time. […]

[3] = Human tests, single D-psicose administration with pure carbohydrate food, energy expenditure; type: in vivo; conditions: humans
[4] = Metabolism test by long-term administration of D-psicose in rats (hourly energy expenditure); type: in vivo, male Wistar rats; conditions: feed with 50.0 g/kg D-psicose + sucrose vs sucrose group, after 5 to 7 weeks, at hour 11 in the light period and hour 5 and 6 in the dark period, FIG. 2
Source text: Effects of long-term administration of D-psicose on energy metabolism were examined using male Wistar rats (3 weeks of age; purchased from Japan SLC). The rats were preliminarily maintained for 1 week with a commercially available powder feed (product name MF; Oriental Yeast Co., Ltd.), and were divided into 2 groups so as to be uniform in body weight upon measuring the body weight (each group contained eight rats). The two groups are a sucrose administered group, and a sucrose+D-psicose administered group.
The two groups of rats were allowed free access to experiment feed (Table 2) and water, and maintained under specific conditions (temperature 22±1° C., humidity 58±2%, light period 8:00 to 20:00, dark period 20:00 to 8:00 next morning). The energy metabolism was measured 5 to 7 weeks after the experiment feed was given. […] The rat breath and the room air were collected into a Douglas bag (Fukuda Sangyo) at 1-hour intervals, and the oxygen and carbon dioxide concentrations were measured with a gas concentration analyzers G-102 and LX-710 (Iijima Electronics Corporation) for 24 hours. The amounts of oxygen consumed by the rat, and the amount of generated carbon dioxide were calculated from the oxygen concentration and the carbon dioxide concentration in the breath, and the oxygen concentration and the carbon dioxide concentration in room air. […]

[5] = Metabolism test by single administration of D-psicose in humans (indirect calorimetry of breath); type: in vivo
Protocol: Effects of single administration of D-psicose on energy expenditure, carbohydrate combustion, and lipid combustion were examined in humans. Energy metabolism was calculated by indirect calorimetry from measurements of subjects' breath (oxygen consumption and carbon dioxide discharge). The test was conducted by a single-blinded crossover study of two groups of 6 healthy individuals with no smoking habit (average age of 34.8; 3 males and 3 females; average BMI 21.4 kg/m^2). Prior to the experiment, the subjects were fully informed of the experiment contents in line with the guidelines of the Declaration of Helsinki, and the experiment was conducted with the informed consent of all subjects. The subjects were fasted for 12 hours before starting the test, and were each given a test solution (150 ml) prepared by adding 5 g of D-psicose, or a test solution (150 ml) prepared by adding 10 mg of high sweetener aspartame to provide the same sweetness as control food. The concentration of the test solution was 3.3% for the D-psicose group, and 0.005% for the aspartame group. After giving the test solution, the subjects were given breakfast (hamburg steak with rice; total calorie: 571 kcal; protein 13.4%, lipid 25.3%, carbohydrate 61.3%). After the breakfast, the subjects were rested on the bed for 20 min in the resting supine position to acclimate to the environment, and the breath was measured with an Aero Monitor AE-310S (Minato Medical Science) connected to a breathing hood. The measurement was ended after 4 hours from the breakfast. During the measurement, the oxygen consumption and the carbon dioxide discharge of each subject were recorded every minute, and energy expenditure, carbohydrate combustion, and lipid combustion were calculated from the measured values using the Elwyn energy equation. Throughout the breath measurement, the subjects were rested on the bed in the resting supine position, and were kept awake and fasted. The results were divided by subject ‘ s body weights, and were represented as mean values and standard deviation. […]

[6] = 5 g D-psicose immediately before lipid-containing breakfast vs aspartame control, 20 minutes to 4 hours from breakfast, FIG. 3

| SMILES | Changes: Body became easier to move (number of subjects) [1] | Changes: Body felt lighter (number of subjects) [1] | Changes: Body felt warmer (number of subjects) [1] | Changes: Felt better (number of subjects) [1] | Changes: Felt less fatigue (number of subjects) [1] | Changes: No change (number of subjects) [1] | AREE/BW (change of resting energy expenditure per body weight, water group subtracted) [2] | effect on energy expenditure [3] | hourly energy expenditure per measured rat weight [4] | energy expenditure (REE) per body weight [5, 6] | lipid combustion (FEE) per body weight [5, 6] | energy metabolism result at lower dose ([5]; single D-psicose dose 2.4 g) | physical changes reported in interview ([1]; humans, continuous intake of 2.5 g or more of D-psicose for 2 weeks) | interview result on repeat test ([1]; humans, sample A (D-psicose 1.0 g) again for 2 weeks, 1 week after testing with sample C) |
| --- | --- | --- | --- | --- | --- | --- | --- | --- | --- | --- | --- | --- | --- | --- |
| O=C(CO)[C@H](O)[C@H](O)[C@H](O)CO [B, D-psicose] | 2 | 3 | 3 | 2 | 2 | 0 |  |  |  |  |  |  |  |  |
| O=C(CO)[C@H](O)[C@H](O)[C@H](O)CO [D-psicose] |  |  |  |  |  |  | no significant difference | did not have effect on energy expenditure | significantly higher | significantly increased | significantly increased | did not show any difference | The subjects all experienced some changes; also recorded: increase or improve body temperature and other sensations |  |
| O=C(CO)[C@H](O)[C@H](O)[C@H](O)CO [C, D-psicose] | 3 | 5 | 5 | 2 | 2 | 0 |  |  |  |  |  |  |  |  |
| O=C(CO)[C@H](O)[C@H](O)[C@H](O)CO [A, D-psicose] | 1 | 1 | 1 | 1 | 1 | 4 |  |  |  |  |  |  |  | produced the same result |
